Test results published in US20070191420A1, “Kinase inhibitors” (Devgen NV, priority 2004, published 2007).
Where a name gives a salt, the structure may show the parent alone.

Tests used:
Assay in all cases: Fluorescence polarization (FP) PKC inhibition assay, Protein Kinase C Assay Kit, Red (Invitrogen)
Type in all cases: biochemical
PKC epsilon = biological target: T1, PKC epsilon (Homo sapiens, UniProt Q02156); details: enzyme 10 ng/ml, ATP 2.5 μM
T1 construct: purchased Invitrogen 6906
T1 sequence (Q02156 1-737): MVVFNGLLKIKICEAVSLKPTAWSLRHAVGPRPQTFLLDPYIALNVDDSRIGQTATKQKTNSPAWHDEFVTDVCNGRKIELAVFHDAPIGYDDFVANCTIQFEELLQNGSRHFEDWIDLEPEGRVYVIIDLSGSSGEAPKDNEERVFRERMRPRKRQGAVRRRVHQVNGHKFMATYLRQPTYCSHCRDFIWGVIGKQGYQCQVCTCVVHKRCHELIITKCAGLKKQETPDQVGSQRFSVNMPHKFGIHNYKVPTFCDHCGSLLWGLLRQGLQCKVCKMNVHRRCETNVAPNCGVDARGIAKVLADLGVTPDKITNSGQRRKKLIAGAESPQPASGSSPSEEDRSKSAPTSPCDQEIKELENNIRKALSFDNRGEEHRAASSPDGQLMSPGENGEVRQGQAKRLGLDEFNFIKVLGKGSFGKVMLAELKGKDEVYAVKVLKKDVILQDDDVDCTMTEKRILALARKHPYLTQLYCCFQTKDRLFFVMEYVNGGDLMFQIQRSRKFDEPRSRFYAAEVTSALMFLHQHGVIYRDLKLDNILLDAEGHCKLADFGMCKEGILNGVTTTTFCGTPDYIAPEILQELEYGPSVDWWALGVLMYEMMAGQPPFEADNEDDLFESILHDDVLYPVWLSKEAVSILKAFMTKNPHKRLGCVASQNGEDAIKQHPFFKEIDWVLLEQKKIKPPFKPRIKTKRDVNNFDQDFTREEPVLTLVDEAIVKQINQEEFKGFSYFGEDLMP
Protocol: (§1) The substrate used was […]
(§2) To perform the assay, 2 μl of a solution of the compound to be tested in DMSO (at each concentration) was added to 6 μl of a solution of the enzyme in 10 mM HEPES, 5 mM dithiotreitol, 0.1% Triton X-100, pH 7,4.
(§3) After incubating for 30 minutes at room temperature, 4 μl of a mixture of ATP and the protein substrate in 60 mM HEPES (pH7.4), 15 mM MgCl2, 0.3 mM CaCl2, 0.06% NP40 was added.
(§4) After incubating for 80 minutes at room temperature, 3 μl of a mix solution of 500 mM EDTA (stop solution) and the Rhodamine-based PKC Red Tracer (from the Protein Kinase C Assay Kit) in BGG/phosphate buffer (pH7.4) with 0.02% NaN3 and 0.1% Triton X-100 was added and 5 μl of a the Anti-Phosphoserine antibody (also from the Protein Kinase C Assay Kit) in BGG/phosphate buffer (pH7.4) with 0.02% NaN3.
(§5) The results were fitted to a curve using the XL-Fit algorithm and IC50 values were calculated for each fitted curve, again using the XL-Fit algorithm.

PKC gamma = biological target: T2, PKC gamma (Homo sapiens, UniProt P05129); details: enzyme 20 ng/ml, ATP 2.5 μM
T2 construct: purchased Invitrogen 9343
Protocol: as §1, §2, §3, §4, §5

PKC theta = biological target: T3, PKC theta (Homo sapiens, UniProt Q04759); details: enzyme 20 ng/ml, ATP 2.5 μM
T3 construct: purchased Invitrogen 7101
Protocol: as §1, §2, §3, §4, §5

PKC zeta = biological target: T4, PKC zeta (Homo sapiens, UniProt Q05513); details: enzyme 20 ng/ml, ATP 2.5 μM
T4 construct: purchased Invitrogen 9232
T4 sequence (Q05513 1-592): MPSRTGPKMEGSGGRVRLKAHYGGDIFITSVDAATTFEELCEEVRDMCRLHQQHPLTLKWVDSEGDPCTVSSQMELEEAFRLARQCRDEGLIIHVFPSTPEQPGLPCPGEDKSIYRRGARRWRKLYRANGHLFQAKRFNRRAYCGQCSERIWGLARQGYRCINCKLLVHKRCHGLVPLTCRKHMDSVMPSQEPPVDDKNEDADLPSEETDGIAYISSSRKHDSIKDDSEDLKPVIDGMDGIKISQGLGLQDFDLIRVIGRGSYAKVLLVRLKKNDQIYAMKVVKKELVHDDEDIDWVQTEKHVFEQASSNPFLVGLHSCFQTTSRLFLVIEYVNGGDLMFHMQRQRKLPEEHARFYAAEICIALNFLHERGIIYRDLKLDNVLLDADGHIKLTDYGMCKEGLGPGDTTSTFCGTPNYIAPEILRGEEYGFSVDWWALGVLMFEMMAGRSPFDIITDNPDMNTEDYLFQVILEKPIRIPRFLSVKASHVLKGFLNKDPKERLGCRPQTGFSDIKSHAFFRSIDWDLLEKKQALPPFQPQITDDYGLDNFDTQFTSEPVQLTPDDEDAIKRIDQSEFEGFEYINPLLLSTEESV
Protocol: as §2, §3, §4, §5

T3 sequence (Q04759 whole entry): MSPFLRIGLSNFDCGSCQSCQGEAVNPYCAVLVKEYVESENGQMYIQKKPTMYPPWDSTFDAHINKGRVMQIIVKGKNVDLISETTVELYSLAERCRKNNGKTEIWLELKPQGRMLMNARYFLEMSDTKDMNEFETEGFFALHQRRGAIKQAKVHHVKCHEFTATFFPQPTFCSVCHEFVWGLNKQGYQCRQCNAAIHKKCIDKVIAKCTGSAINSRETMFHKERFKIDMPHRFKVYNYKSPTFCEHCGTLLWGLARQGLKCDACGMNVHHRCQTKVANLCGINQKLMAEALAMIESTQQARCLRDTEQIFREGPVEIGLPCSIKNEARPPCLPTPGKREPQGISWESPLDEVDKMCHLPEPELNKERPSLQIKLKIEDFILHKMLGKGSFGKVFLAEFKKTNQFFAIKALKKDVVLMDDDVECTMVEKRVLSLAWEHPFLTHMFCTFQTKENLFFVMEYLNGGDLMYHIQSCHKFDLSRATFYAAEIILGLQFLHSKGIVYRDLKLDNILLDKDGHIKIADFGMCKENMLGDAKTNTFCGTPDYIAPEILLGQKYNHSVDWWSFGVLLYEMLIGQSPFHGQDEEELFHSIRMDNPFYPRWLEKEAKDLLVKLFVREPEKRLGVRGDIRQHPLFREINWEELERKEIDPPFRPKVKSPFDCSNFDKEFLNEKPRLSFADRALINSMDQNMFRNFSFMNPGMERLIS

| Molecule | IC50 (PKC epsilon; substrate RFARKGSLRQKNV 1 μM) [µM] | IC50 (PKC gamma; substrate RFARKGSLRQKNV 1 μM) [µM] | IC50 (PKC theta; substrate RFARKGSLRQKNV 1 μM) [µM] | IC50 (PKC zeta; substrate RFARKGSLRQKNV 1 μM) [µM] | IC50 (PKC epsilon; substrate […] 1 μM) [µM] | IC50 (PKC gamma; substrate […] 1 μM) [µM] | IC50 (PKC theta; substrate […] 1 μM) [µM] | IC50 (PKC zeta; substrate […] 1 μM) [µM] |
| --- | --- | --- | --- | --- | --- | --- | --- | --- |
| 4-aminomethyl-2,5-dimethyl-N-pyridin-4-yl-benzamide dihydrochloric acid salt [Compound 39] | 8.3 | > 100 | 16.8 | > 100 | – | – | – | – |
| CC(N)c1ccc(C(=O)Nc2ccncc2)s1 (racemic) [Compound 22, 5-(1-amino-ethyl)-thiophene-2-carboxylic acid pyridinedin-4-ylamide] | – | – | – | – | 16 | > 100 | 9.01 | 45.9 |
| NCCCCCC(=O)Nc1ccncc1 [Compound 1, 6-Amino-hexanoic acid pyridine-4-ylamide dihydrochloric acid salt] | – | – | – | – | > 100 | > 100 | > 100 | > 100 |
| CC(C)(C)C1CCC(C(=O)Nc2ccncc2)CC1 (centres unmarked) [Compound 2, 4-tert-butyl-cyclohexanecarboxylic acid pyridine-4-ylamide] | – | – | – | – | > 100 | > 100 | > 100 | > 100 |
| NC[C@H]1CC[C@H](C(=O)Nc2ccccc2)CC1 [Compound 3, Trans-4-aminomethyl-cyclohexanecarboxylic acid phenylamide hydrochloric acid salt] | – | – | – | – | > 100 | 90.5 | > 100 | 40.3 |
| NC[C@H]1CC[C@H](C(=O)Nc2ccc(F)cc2)CC1 [Compound 4, Trans-4-aminomethyl-cyclohexanecarboxylic acid (4-fluoro-phenyl)-amide hydrochloric acid salt] | – | – | – | – | > 100 | > 100 | > 100 | > 100 |
| NC[C@H]1CC[C@H](C(=O)NCc2ccncc2)CC1 [Compound 5, Trans-4-aminomethyl-cyclohexanecarboxylic acid (pyridine-4-ylmethyl)-amide] | – | – | – | – | > 100 | > 100 | > 100 | > 100 |
| NC[C@H]1CC[C@H](C(=O)Nc2cccnc2)CC1 [Compound 6, Trans-4-aminomethyl-cyclohexanecarboxylic acid pyridin-3-ylamide] | – | – | – | – | > 100 | > 100 | > 100 | > 100 |
| NC[C@H]1CC[C@H](C(=O)Nc2ccccn2)CC1 [Compound 7, Trans-4-aminomethyl-cyclohexanecarboxylic acid pyridin-2-ylamide] | – | – | – | – | > 100 | > 100 | > 100 | > 100 |
| CC(O)c1ccc(C(=O)Nc2ccncc2)cc1 (centres unmarked) [Compound 8, 4-(1-hydroxy-ethyl)-N-pyridin-4-yl-benzamide] | – | – | – | – | > 100 | > 100 | > 100 | > 100 |
| NCc1cccc(C(=O)Nc2ccncc2)c1 [Compound 9, 3-aminomethyl-N-pyridin-4-yl-benzamide dihydrochloric acid salt] | – | – | – | – | > 100 | > 100 | > 100 | > 100 |
| NCc1ccc(S(=O)(=O)Nc2ccncc2)cc1 [Compound 10, 4-aminomethyl-N-pyridin-4-yl-benzenesulfonamide] | – | – | – | – | > 100 | > 100 | > 100 | > 100 |
| NCc1ccc(NCc2ccncc2)cc1 [Compound 11, (4-aminomethyl-phenyl)-pyridin-4-ylmethyl-amine dihydrochloric acid salt] | – | – | – | – | > 100 | > 100 | > 100 | > 100 |
| N/C(=N\O)c1ccc(C(=O)Nc2ccncc2)cc1 [Compound 12, 4-(N-pyridin-4-yl)-benzamide oxime] | – | – | – | – | > 100 | > 100 | > 100 | > 100 |
| CC(N)c1ccc(C(=O)Nc2ccnc3[nH]ccc23)s1 (centres unmarked) [Compound 40, 5-(1-amino-ethyl)-thiophene-2-carboxylic acid N-(1H-pyrrolo[2,3pyridinedin-4-yl)-benzamidedihydrochloric acid salt] | – | – | – | – | 3.9 | – | 3.2 | > 100 |
